Results as given in patent US20130337463A1, “Cell-Based Models of Neurodegenerative Disease” (The Trustees of the University of Pennsylvania, priority 2010, published 2013).

Key:
[1] = tested on: AMPAR; details: published (Dev et al., 1996); cited from earlier work
[2] = tested on: primary hippocampal neurons derived from WT C57BL6 mice; assay: p-α-syn aggregate formation in primary hippocampal neurons after pff addition; type: cell-based, mouse; details: for p-α-syn aggregate formation: pffs added to DIV5 neurons, 2 weeks
Method: Primary neuronal cultures were prepared from E16-E18 C57BL/6 mouse brains (Charles River, Wilmington, Mass.) and α-syn −/− mice (Abeliovich et al., 2000, Neuron 25:239-252). All procedures were performed according to the NIH Guide for the Care and Use of Experimental Animals and were approved by the University of Pennsylvania Institutional Animal Care and Use Committee. Hippocampi were dissected, rinsed with Hank's Balanced Salt Solution (HBSS) and digested in HBSS containing papain (20 U/mL; Worthington Biochemical Corporation; Lakewood, N.J.) containing DNase (20 μg/mL; Worthington Biochemical Corporation; Lakewood, N.J.). Following rinses in plating media (10% fetal bovine serum, 1% penicillin/streptomycin, Glutamax, B27, Neurobasal media; Invitrogen, Carlsbad, Calif.) and HBSS, dissociated hippocampal neurons were plated in plating media onto poly-D-lysine (0.1 mg/mL, diluted in borate buffer, 0.1M, pH8.4) coated coverslips (Carolina Biological Supply, Burlington, N.C.) in 24 well trays at 20,000-40,000 cells/cm^2 or poly-D-lysine coated 60 mm dishes at 70-100,000 cells/cm2. The media was then changed to neuronal media (1% penicillin/streptomycin, Glutamax, B27, Neurobasal media). Most experiments were performed at 19 days in vitro (DIV).
Recombinant full-length and truncated α-syn with and without a C-terminal myc-tag, were purified as previously described (Giasson et al., 2001, J. Biol. Chem. 276:2380-2386). α-syn pffs were generated by incubating purified α-syn (5 mg/mL in PBS) at 37° C. with constant agitation for 5 days, followed by aliquoting and storage at […]. The presence of amyloid was confirmed using Thioflavin T fluorometry. Fibrils of α-syn synthetic NAC peptide (amino acids 61-95) (Biotechnology Resource Center, Yale University) were generated as described (Giasson et al., 2001, J. Biol. Chem. 276:2380-2386). Pffs were diluted in PBS at 0.1 mg/mL, sonicated several times, and diluted in neuronal media. For a 24-well tray, 1 μg/mL of pffs were added, and 5 μg/mL of α-syn pffs were added to a […]. For WGA experiments, α-syn pffs were incubated with 1 μg/mL or 5 μg/mL WGA or preincubated for 1 hr (h) with 0.1 M GlcNAC followed by incubation with media containing α-syn pffs, GlcNAC, and WGA.
Neurons were fixed with 4% paraformaldehyde in PBS containing 4% sucrose followed by permeabilization with 0.1% Triton X-100. To determine if the pathologic α-syn aggregates were detergent-insoluble, neurons were fixed with 4% paraformaldehyde, 4% sucrose and 1% Tx-100 (Luk et al., 2009, Proc. Natl. Acad. Sci. USA 106:20051-20056). Following fixation, neurons were blocked with 3% bovine serum albumin (BSA) in PBS, and incubated in primary antibodies (Table 6) followed by Alex fluor 594 or 488-conjugated secondary antibodies (anti-mouse, anti-rabbit, anti-IgG1 and anti-IgG2a; Invitrogen; Carlsbad, Calif.) diluted in blocking buffer. To assess cell viability, cells were incubated with ethidium homodimer (2 μM, Sigma Aldrich, St. Louis, Mo.) and Hoechst 33342 (1:1000, Invitrogen, Carlsbad, Calif.) and the percent overlap between both dyes was determined using Metamorph software (Molecular Devices, Sunnyvale, Calif.).

[3] = tested on: T40/P301L-transfected cells; assay: Fibril-alone transduction without BioPORTER reagent (spontaneous PFF uptake); type: cell-based, human
Method: For fibril-alone transduction without BioPORTER reagent, cells were placed on starvation medium right before the addition of fibrils. Fibrils were processed as described above and the same amount was used as in reagent-mediated transduction. Cells were trypsinized and replated either 4 hr or 30 hr after the initial addition of fibrils. For experiments using WGA, different doses of WGA were added to starvation medium together with PFFs. To inhibit endocytosis of WGA, 0.1 M GlcNAc was incubated with medium containing PFFs and 10 µg/ml WGA for 1 hr at 37° C. before being added to cells which were pre-incubated in 0.1M GlcNAc-containing medium for 1 hr. Cells were placed on WGA-free starvation medium 5-6 hr after fibril addition and fixed after overnight incubation to minimize possible toxicity resulted from WGA treatment.
Immunocytochemistry was performed 48 hr after the initial addition of fibrils unless indicated otherwise. Cells were fixed in 4% paraformaldehyde (PFA) for 10 min and permeabilized with 0.1% Triton-X100 for 15 min, or fixed with 4% PFA containing 1% Triton-X100 for 15 min to remove soluble proteins. For visualization of microtubules, cells were fixed with 0.3% glutaraldehyde in PEM buffer (80 mM PIPES, pH6.8, 5 mM EGTA, 1 mM MgCl2) for 10 min, extracted with 1% Triton-X100 for 15 min before being quenched with 10 mg/ml sodium borohydride for 7 min followed by 0.1 M glycine for 20 min. […]
For quantifying the percentage of cells developing tau aggregates with different combinations of endogenous tau and PFFs, 10-20 random-field images were taken at 40× magnification for each combination and at least two independent experiments were performed. For quantification of MT-bundling and PFF-induced tau aggregation in the absence of bioPORTER reagent under various conditions (i.e. different temperatures, with or without WGA/GlcNAc), 10 random-field images were taken at 20× magnification for each condition in each experiment and 3-4 independent experiments were performed. […]

[4] = tested on: QBI-WT-Syn cells (QBI-293 cells stably expressing WT α-Syn); assay: α-Syn inclusion formation after Bioporter transduction of QBI-WT-Syn cells; type: cell-based, human; details: immunostaining 48 h after transduction
Method: QBI cells were plated in 35-mm tissue culture plates and allowed to reach 80-90% confluence for transduction experiments. Cells were transferred to serum-free media 1 h before transduction. For each plate, 10 μL of cationic-liposomal protein transduction reagent (Bioporter; Sigma) was added to a 1.5-mL Microfuge tube and evaporated as per the manufacturer's guidelines. The resulting reagent dry-film was then directly resuspended with 80 μL of PBS containing α-Syn fibrils (100 μg/mL) fragmented by brief sonication with a hand-held probe. Protein:reagent complexes were allowed to form at room temperature for 10 min, after which the mixture was further diluted in OptiMEM (Invitrogen) and added to cells. Cells were then further incubated for 4 h, washed twice with Versene and 0.5% trypsin/EDTA to remove extracellular α-Syn fibrils, and transferred onto 6-well tissue culture plates or poly(d-lysine)-coated glass coverslips. […]
Cells on coverslips were washed with PBS and fixed with 4% paraformaldehyde. […] Epifluorescence images were obtained by using a Nikon Eclipse 3000 inverted microscope equipped with a CoolSNAP HQ camera (Roper Scientific) and analyzed by using Metamorph 6.0 (Molecular Devices). […] Confocal laser scanning microscopic images were obtained by using a Zeiss LSM510 microscope and analyzed by using Volocity software (Improvision).

NS(=O)(=O)c1cccc2c1c([N+](=O)[O-])cc1nc(O)c(O)nc12 [NBQX]
IC50 [1]: 47 nM

CC(=O)N[C@H]1C(O)O[C@H](CO)[C@@H](O)[C@@H]1O (stereo partly shown) [GlcNAc, N-acetyl glucosamine]
effect on WGA-enhanced aggregate formation ([2]; 0.1 M GlcNAc): reduced the effects of WGA on α-syn pff-induced aggregate formation
effect on WGA-enhanced PFF uptake and tau aggregation ([3]; 0.1 M GlcNAc added to the medium): significantly attenuated

α-syn-58-140: human α-syn pffs composed of residues 58-140
p-α-syn aggregate formation [2]: seeded formation of endogenous mouse α-syn aggregates

wheat germ agglutinin [WGA]
effect on extent of p-α-syn pathology ([2]; co-incubation with α-syn-hWT pffs, 1 or 5 μg/mL WGA, 4 days): dose-dependently increased the extent of p-α-syn pathology
effect on prevalence of tau aggregate-bearing cells ([3]; co-incubated with myc-K18/P301L PFFs, 0, 5, 10, 15 µg/ml WGA): increased the prevalence of tau aggregate-bearing cells
accumulation of insoluble tau in the absence of PFFs ([3]; up to 15 µg/ml of WGA): nor does it induce accumulation of insoluble tau in the absence of PFFs

α-syn-1-89: human α-syn pffs composed of residues 1-89
p-α-syn aggregate formation [2]: robust accumulation of endogenous p-α-syn aggregates

β-galactosidase: unrelated soluble protein
inclusion formation [4]: did not result in inclusion formation

α-syn-NAC: fibrils of α-syn synthetic NAC peptide (amino acids 61-95)
p-α-syn aggregate formation [2]: resulted in endogenous mouse α-syn fibrillar LB-like aggregates
